Measurements as given in patent publication US11634447B2 (priority 2012, dated 2023).

Key:
[1] = test system: bacterial strain LF82 binding to the glycoprotein BSA-(Mannose)3; experiment: Bacterial Binding Assay (BBA); format: cell-based, Escherichia coli; conditions: read-out: Bacterial Binding Assay IC50, LF82/Luciferase strain binding to BSA-(Man)3 coated plates, luminescence
Method in brief: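 Inhibition of LF82/luciferase E. coli adhesion is read as luminescence after washing off unbound cells. Compound and bacteria (10^7 per well) are co-incubated 40-75 min at room temperature on wells coated with 0.5-2 μg/mL BSA-(Man)3, with BSA-only wells as background; IC50 values derived.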

FimH-CRD [2] = target: T1, FimH-CRD (Escherichia coli, UniProt P08191); experiment: Competitive binding assay by fluorescence polarization, assay 2 (compounds prepared by a robotics system, plates frozen and thawed); design: species or system E. coli; conditions: Assay 2 Kd, 5 nM Alexa 647 mannoside probe, 60 nM FimH-CRD, replicate values in one cell
T1 construct: The first 177 amino acids of the FimH protein are expressed as a fusion protein; thrombin tag (printed as 'fusion protein with thrombin') (cleaved yes); made in house; host or cells: bacteria (pET21b plasmid)
T1 sequence (P08191 22-177): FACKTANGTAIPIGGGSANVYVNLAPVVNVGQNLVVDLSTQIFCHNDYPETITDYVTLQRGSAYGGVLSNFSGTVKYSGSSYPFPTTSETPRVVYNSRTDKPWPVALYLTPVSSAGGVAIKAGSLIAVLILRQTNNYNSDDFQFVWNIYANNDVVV
Description: The first 177 amino acids of the FimH protein are expressed as a fusion protein with thrombin in a pET21b plasmid in bacteria. This FimH protein sequence contains the carbohydrate recognition domain (CRD) and shall be termed FimH-CRD. Following bacterial expression of the protein, the FimH-CRD protein is purified to homogeneity and the thrombin tag removed by protease cleavage. A competitive binding assay by fluorescence polarization is performed using 5 nM of the Alexa 647 mannoside probe and 60 nM of the FimH-CRD. The samples are assayed in a low volume 384 well microtiter plate in a final volume of 20 μl. The final assay buffer conditions are the following, 50 mM Tris-Cl, ph 7.0, 100 mM NaCl, 1 mM EDTA, 5 mM β-mercaptoethanol, 0.05% BSA and 2.5% DMSO. Two assays are performed for FimH, termed assay 1 or assay 2. The assay conditions are the same for both assays except the following: assay 1 has compounds prepared by manual dilution in a serial dilution factor with 12-point dose response while assay 2 has compounds prepared by a robotics system also through a serial dilution factor (12 point dose response) and initially prepared in duplicate in 384 well-Corning polypropylene round bottom plates. The assay 2 plates have compound which is then frozen and must be thawed prior to use. Initially the Alexa 647 probe and the FimH-CRD are added to the assay buffer and then 0.5 μl of test compound (assay 1 or 2) between 0.4 nM to 75 μM final concentration are added (12 point titration with 3-fold serial dilution). Control wells for the Alexa 647 probe are prepared with the same conditions except for the addition of the FimH-CRD protein. Plates are then incubated for 5 hrs at room temperature in the dark and under humid conditions to prevent drying. Plates are read using the SpectraMax Paradigm multi-mode plate reader and the appropriate fluorescent polarization detection cartridge (Alexa-647).
Alexa 647 mannoside probe is prepared using the similar procedure reported for FAM mannoside (Han, Z. et. al., 2010, J. Med. Chem., 53, 4779) and is described in the scheme below.
To a blue colored stirred solution of (2S,3S,4S,5S,6R)-2-(4-aminobutoxy)-6-(hydroxymethyl)tetrahydropyran-3,4,5-triol (2.21 mg, 0.009 mmol) and the (2E)-2-[(2E,4E)-5-[3,3-dimethyl-5-sulfonato-1-(3-sulfonatopropyl)indol-1-ium-2-yl]penta-2,4-dienylidene]-3-[6-(2,5-dioxopyrrolidin-1-yl)oxy-6-oxo-hexyl]-3-methyl-1-(3-sulfonatopropyl)indoline-5-sulfonate (Potassium Ion (3)) (4.9 mg, 0.0044 mmol) in DMF (44 μL) is added Et3N (5.4 mg, 7.0 μL, 0.053 mmol) at RT. The solution is stirred at room temperature over night, concentrated, dissolved in water and purified on 12 g C-18 silica gel cartridge on Isolera system using acetonitrile in water (0 to 40%, 10 CV) and followed by lyophilization to afford Alexa 647 mannoside probe (3.3 mg, 34%) as deep blue solid.
The Kd values of the compounds are determined from dose response curves using twelve concentrations per compound in duplicate. Curves are fitted to data points using Fluorescence Polarization competitive displacement analysis, and Kds are interpolated from the resulting curves using GraphPad Prism software, version […] (GraphPad software Inc., San Diego, Calif., USA).

FimH-CRD [3] = target: T1, FimH-CRD; experiment: Competitive binding assay by fluorescence polarization, assay 1 (compounds prepared by manual dilution); design: species or system E. coli
Method in brief: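 FimH-CRD (residues 1-177, tag removed) at 60 nM competed against 5 nM Alexa 647 mannoside probe in 50 mM Tris-Cl pH 7.0, 100 mM NaCl, 1 mM EDTA, 5 mM β-mercaptoethanol, 0.05% BSA, 2.5% DMSO; 5 h, room temperature, dark. Compounds 0.4 nM-75 μM final, 12-point 3-fold, duplicate; Kd from fluorescence polarization displacement curves. Assay 1: manual dilution; assay 2: robotic dilution, plates frozen/thawed.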

In the case of OC[C@H]1O[C@H](c2cccc(OCCCOc3cccc([C@H]4O[C@H](CO)[C@@H](O)[C@H](O)[C@@H]4O)c3)c2)[C@@H](O)[C@@H](O)[C@@H]1O [Compound 44, ((2R,3S,4R,5S,6R)-2-(Hydroxymethyl)-6-[3-[3-[3-[(2R,3S,4R,5S,6R)-3,4,5-trihydroxy-6-(hydroxymethyl)tetrahydropyran-2-yl]phenoxy]propoxy]phenyl]tetrahydropyran-3,4,5-triol)], the IC50 [1] is reported as 480 nM, the Kd (FimH-CRD [2]) is reported as 6 nM and the Kd (FimH-CRD [3]; Assay 1 Kd, 5 nM Alexa 647 mannoside probe, 60 nM FimH-CRD, replicate values in one cell) is reported as < 5 nM. The Kd (FimH-CRD [3]; read-out: Assay 1 Kd, 5 nM Alexa 647 mannoside probe, 60 nM FimH-CRD, replicate values in one cell) was < 5 nM.
